Test results published in PubChem BioAssay AID1845206 (Molecular Pharmacology Branch, DTP, NCI, 2023).

Tested on: NCI-H1618 multicellular tumor spheroid viability
Assay: Anticancer human tumor NCI-H1618 cell line growth inhibition;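 note: spheroids exposed to agents for 7 days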
Conditions: for IC50: curve of first compound; for viability, T/C: stronger effect = lower value
Text: Multicellular complex tumor spheroid response to DNA repair inhibitors in combination with DNA-damaging drugs
This study explores the anticancer activities of DNA-damaging drugs and inhibitors of DNA damage repair, both as single agents and in combinations. Complex tumor spheroids comprised of malignant cells, endothelial cells and mesenchymal stem cells served as an in vitro model for human solid tumors. This model system incorporates physiologically relevant features and patient-derived or established malignant cell lines with clinically relevant genetic alterations from many tumor types. Twenty-six patient-derived or established malignant cell lines were evaluated representing sarcoma, melanoma, small cell lung cancer (SCLC), non-small cell lung cancer (NSCLC), as well as bladder, ovarian and pancreatic cancers. The concentration ranges selected for each drug and investigational agent were based upon clinically achievable concentrations if the clinical Cmax of the agent was known.
Compounds. The drugs and compounds olaparib (NSC753686), talazoparib (NSC767125), berzosertib (NSC777718), elimusertib (NSC800525), nedisertib (NSC802822), VX-984 (NSC792969), AZD-1390 (NSC803789), temozolomide (NSC362856), topotecan (NSC609699), trabectedin (NSC813783), staurosporine (NSC755774), and gemcitabine (NSC613327) were obtained from the National Cancer Institute (NCI) Developmental Therapeutics Program Chemical Repository. The FDA-approved anticancer drug set is available from the Developmental Therapeutics Program at https://dtp.cancer.gov/organization/dscb/obtaining/available_plates.htm. […] The stock solutions were prepared in dimethyl sulfoxide (DMSO, Sigma-Aldrich, St. Louis, MO, cat. D2650) at 400-fold the tested concentration and stored at -70 degrees C. Prior to their use, the stock solutions were diluted in fresh medium and the final DMSO concentration in the assay was 0.25% (v/v). All drugs and investigational agents were tested over a range starting from a high concentration at or near the clinical Cmax and decreasing in half-log increments. If the clinical Cmax for an agent had not been determined, the highest concentration tested was 10 microM.
Cell Lines. The patient-derived cancer cell (PDC) lines: 156681-154-R-J1-PDC, 283228-195-R-J1-PDC, 287954-098-R-J1-PDC, 292921-168-R-J2-PDC, 349418-098-R-PDC, 425362-245-T-J1-PDC, 556581-035-R-J1-PDC, and BL0293-F563-PDC were received from the NCI Patient-Derived Models Repository (PDMR, https://pdmr.cancer.gov). The established cell lines HS-SY-2 (RRID:CVCL_8719), MPNST, and SYO-1 (RRID:CVCL_7146) were obtained from the Sloan Kettering Institute. The alveolar soft parts sarcoma cell line ASPS-1 (RRID:CVCL_S738) was established at the NCI and grown from internal seed stocks. The following established cell lines were purchased from the American Type Culture Collection (ATCC, Manassas, VA): G-401 (ATCC, cat. CRL-1441, RRID:CVCL_0270), SW982 (ATCC, cat. HTB-93, RRID:CVCL_1734), VA-ES-BJ (ATCC, cat. CRL-2138, RRID:CVCL_1785), NCI-H719 (ATCC, cat. CRL-5837, RRID:CVCL_1582), NCI-H196 (ATCC, cat. CRL-5823, RRID:CVCL_1509), NCI-H841 (ATCC, cat. CRL-5845, RRID:CVCL_1595), NCI-H1618 (ATCC, cat. CRL-5879, RRID:CVCL_1480), NCI-H1876 (ATCC, cat. CRL-5902, RRID:CVCL_1503), DMS 114 (ATCC, cat. CRL-2066; RRID:CVCL_1174), NCI-H211 (ATCC, cat. CRL-5824; RRID:CVCL_1529), and SW 1271 (ATCC, cat. CRL-2177, RRID:CVCL_1716). The small cell lung cancer cell line COR-L88 was purchased from Sigma-Aldrich (cat. 92031917-1VL, RRID:CVCL_1141). The non-small cell lung cancer cell lines NCI-H226 (RRID:CVCL_1544) and NCI-H322M (RRID:CVCL_1557) were established at the NCI and grown from internal seed stocks. Pooled donor human umbilical vein endothelial cells (HUVEC, Lonza, cat. CC-2519) and human mesenchymal stem cells (hMSC, Lonza, cat. PT-2501) were purchased from Lonza (Walkersville, MD).
Cell Culture. All cells were maintained in an incubator at 37 degrees C and 5% CO2 with 95% humidity. […]

Cc1cc(C)c(CNC(=O)c2cc(-c3ccc(CN4CCOCC4)cc3)cc3c2cnn3C2CCCC2)c(=O)[nH]1 + CC[C@@]1(O)C(=O)OCc2c1cc1n(c2=O)Cc2cc3c(CN(C)C)c(O)ccc3nc2-1
IC50 (second compound 0.003 µM): > 10000 nM | IC50 (second compound 0.00949 µM): < 31.6 nM | IC50 (second compound 0.03 µM): < 31.6 nM | IC50 (second compound 0.0949 µM): < 31.6 nM | IC50 (second compound 0.3 µM): < 31.6 nM | viability, T/C (second compound 0.003 µM, first compound 0.0316 µM): 90.8% | viability, T/C (second compound 0.003 µM, first compound 0.1 µM): 94.2% | viability, T/C (second compound 0.003 µM, first compound 0.316 µM): 94.5% | viability, T/C (second compound 0.003 µM, first compound 1 µM): 88.5% | viability, T/C (second compound 0.003 µM, first compound 3.16 µM): 83.1% | viability, T/C (second compound 0.003 µM, first compound 10 µM): 76.2% | viability, T/C (second compound 0.00949 µM, first compound 0.0316 µM): 58.5% | viability, T/C (second compound 0.00949 µM, first compound 0.1 µM): 38.5% | viability, T/C (second compound 0.00949 µM, first compound 0.316 µM): 51% | viability, T/C (second compound 0.00949 µM, first compound 1 µM): 27.2% | viability, T/C (second compound 0.00949 µM, first compound 3.16 µM): 17.3% | viability, T/C (second compound 0.00949 µM, first compound 10 µM): 12.7% | viability, T/C (second compound 0.03 µM, first compound 0.0316 µM): 1.8% | viability, T/C (second compound 0.03 µM, first compound 0.1 µM): 1.58% | viability, T/C (second compound 0.03 µM, first compound 0.316 µM): 1.81% | viability, T/C (second compound 0.03 µM, first compound 1 µM): 1.82% | viability, T/C (second compound 0.03 µM, first compound 3.16 µM): 1.84% | viability, T/C (second compound 0.03 µM, first compound 10 µM): 18.6% | viability, T/C (second compound 0.0949 µM, first compound 0.0316 µM): 1.32% | viability, T/C (second compound 0.0949 µM, first compound 0.1 µM): 1.44% | viability, T/C (second compound 0.0949 µM, first compound 0.316 µM): 1.43% | viability, T/C (second compound 0.0949 µM, first compound 1 µM): 2.27% | viability, T/C (second compound 0.0949 µM, first compound 3.16 µM): 1.46% | viability, T/C (second compound 0.0949 µM, first compound 10 µM): 2.04% | viability, T/C (second compound 0.3 µM, first compound 0.0316 µM): 19.2% | viability, T/C (second compound 0.3 µM, first compound 0.1 µM): 1.25% | viability, T/C (second compound 0.3 µM, first compound 0.316 µM): 1.16% | viability, T/C (second compound 0.3 µM, first compound 1 µM): 1.34% | viability, T/C (second compound 0.3 µM, first compound 3.16 µM): 1.57% | viability, T/C (second compound 0.3 µM, first compound 10 µM): 19.7%

Cc1sc2c(c1C)C(c1ccc(Cl)cc1)=NC(CC(=O)Nc1ccc(O)cc1)c1nnc(C)n1-2 (stereo not given) + CC[C@@]1(O)C(=O)OCc2c1cc1n(c2=O)Cc2cc3c(CN(C)C)c(O)ccc3nc2-1
IC50 (second compound 0.003 µM): 453 nM | IC50 (second compound 0.00949 µM): 11 nM | IC50 (second compound 0.03 µM): < 9.49 nM | IC50 (second compound 0.0949 µM): < 9.49 nM | IC50 (second compound 0.3 µM): < 9.49 nM | viability, T/C (second compound 0.003 µM, first compound 0.00949 µM): 96.6% | viability, T/C (second compound 0.003 µM, first compound 0.03 µM): 85.2% | viability, T/C (second compound 0.003 µM, first compound 0.0949 µM): 89.1% | viability, T/C (second compound 0.003 µM, first compound 0.3 µM): 61.3% | viability, T/C (second compound 0.003 µM, first compound 0.949 µM): 27.2% | viability, T/C (second compound 0.003 µM, first compound 3 µM): 1.67% | viability, T/C (second compound 0.00949 µM, first compound 0.00949 µM): 55.5% | viability, T/C (second compound 0.00949 µM, first compound 0.03 µM): 21.2% | viability, T/C (second compound 0.00949 µM, first compound 0.0949 µM): 29.5% | viability, T/C (second compound 0.00949 µM, first compound 0.3 µM): 2.24% | viability, T/C (second compound 0.00949 µM, first compound 0.949 µM): 0.92% | viability, T/C (second compound 0.00949 µM, first compound 3 µM): 0.93% | viability, T/C (second compound 0.03 µM, first compound 0.00949 µM): 1.53% | viability, T/C (second compound 0.03 µM, first compound 0.03 µM): 17% | viability, T/C (second compound 0.03 µM, first compound 0.0949 µM): 1.42% | viability, T/C (second compound 0.03 µM, first compound 0.3 µM): 1.1% | viability, T/C (second compound 0.03 µM, first compound 0.949 µM): 0.9% | viability, T/C (second compound 0.03 µM, first compound 3 µM): 0.76% | viability, T/C (second compound 0.0949 µM, first compound 0.00949 µM): 1.43% | viability, T/C (second compound 0.0949 µM, first compound 0.03 µM): 1.5% | viability, T/C (second compound 0.0949 µM, first compound 0.0949 µM): 1.55% | viability, T/C (second compound 0.0949 µM, first compound 0.3 µM): 0.99% | viability, T/C (second compound 0.0949 µM, first compound 0.949 µM): 0.71% | viability, T/C (second compound 0.0949 µM, first compound 3 µM): 15.8% | viability, T/C (second compound 0.3 µM, first compound 0.00949 µM): 1.23% | viability, T/C (second compound 0.3 µM, first compound 0.03 µM): 1.1% | viability, T/C (second compound 0.3 µM, first compound 0.0949 µM): 0.98% | viability, T/C (second compound 0.3 µM, first compound 0.3 µM): 0.97% | viability, T/C (second compound 0.3 µM, first compound 0.949 µM): 0.73% | viability, T/C (second compound 0.3 µM, first compound 3 µM): 0.63%
